Test results published in ChEMBL document CHEMBL1126982, “Design and synthesis of a DNA-cleaving metallopeptide” (Bioorg Med Chem Lett, 1993).

Assays:
Format in all cases: nucleic-acid assay
Nucleic Acid [1] = test: Cu(II) complex for cleavage of phi X174 RF plasmid DNA from intact form I to nicked form II at 250 uM compound and 100 uM Cu(II)
Nucleic Acid [2] = test: Cu(II) complex for cleavage of phi X174 RF plasmid DNA from intact form I to nicked form II at 250 uM compound and 200 uM Cu(II)
Nucleic Acid [3] = test: Cu(II) complex for cleavage of phi X174 RF plasmid DNA from intact form I to nicked form II at 350 uM of Cu(II)

Activity (Nucleic Acid [1]): 50%
Activity (Nucleic Acid [2]): 70%
Activity (Nucleic Acid [3]): > 90%
Substance: H-GGHGYSPTSPSYGK-NH2
